# Measurements: paper PMC12034907 (Journal of Clinical Pharmacology, 2024)
# Entries after “also recorded” stand apart in the source; their conditions may differ. Read-outs that look alike come from different tables or passages of the source. Marks after values point to notes of the source that are not given here.
# How the values were obtained:
# [1] = system: CYP3A4
# [2] = cited from earlier work
# [3] = system: CYP3A4; details: liver metabolism; cited from earlier work
# [4] = Clinical DDI study: safety and tolerability; type: in vivo, human; details: for AEs leading to death / AEs leading to treatment discontinuation / Related AEs / Serious AEs / Severity of AE: Mild / Severity of AE: Moderate / Severity of AE: Severe / AEs: by period, safety population; for AEs: participants who experienced AEs
# [5] = system: CYP2C19; details: liver metabolism; cited from earlier work
# [6] = system: CYP2C9; details: liver metabolism; cited from earlier work
# [7] = system: CYP3A; details: cited from earlier work; for midazolam exposure relative to baseline exposure: studies with CYP3A inducers; for effect of CYP3A inhibitor on midazolam exposure: interaction studies
# [8] = with mavacamten vs midazolam alone
# [9] = midazolam 5 mg + mavacamten 15 mg on day 17, geometric mean (geometric CV%)
# [10] = midazolam 5 mg oral alone (day 1), geometric mean (geometric CV%)
smiles,measurement,setting,value
"OCc1ncc2n1-c1ccc(Cl)cc1C(c1ccccc1F)=NC2 [1′‐Hydroxymidazolam, 1′‐hydroxymidazolam]",increase in AUC0-inf,[1]; [8],20%
same,increase in AUC0-last,[1]; [8],11%
same,increase in Cmax,[1]; [8],28%
same,"tmax, median (range)","midazolam 5 mg + mavacamten 15 mg on day 17, n = 12",0.51 (0.50‐1.0) h
same,AUC0-inf,[9],47.76 (36.3) (n = 7) ^b ng∙h/mL
same,t1/2,[9],5.22 (29.9) (n = 7) ^b h
same,"tmax, median (range)","midazolam 5 mg oral alone (day 1), n = 13",1.00 (0.50‐2.08) h
same,AUC0-last,"midazolam 5 mg oral alone (day 1), n = 13, geometric mean (geometric CV%)",38.63 (22.2) ng∙h/mL
same,AUC0-inf,[10],41.47 (24.1) (n = 10) ^b ng∙h/mL
same,t1/2,[10],6.48 (24.7) (n = 10) ^b h
CC(C)n1c(=O)cc(N[C@@H](C)c2ccccc2)[nH]c1=O [Mavacamten],estimated oral bioavailability,[2],at least 85%
same,median time to maximum plasma concentration (tmax),[2],1 to 2 h
same,share of metabolism by CYP3A4,[3],18%
same,AEs leading to death,[4],0 n (%)
same,AEs leading to treatment discontinuation,[4],0 n (%)
same,Related AEs,[4],5 (38.5) n (%)
same,Serious AEs,[4],0 n (%)
same,Severity of AE: Mild,[4],9 (69.2) n (%)
same,Severity of AE: Moderate,[4],1 (7.7) n (%)
same,Severity of AE: Severe,[4],0 n (%)
same,tolerability,[4]; healthy participants,well tolerated
same,AEs,[4],9 (69.2) n (%)
same,effect of mavacamten on midazolam exposure (CYP3A4 induction),"[1]; clinically relevant mavacamten exposures, healthy participants",negligible effect; also recorded: did not meet the criteria for induction
same,share of metabolism by CYP2C19,[5],74%
same,share of metabolism by CYP2C9,[6],8%
Cc1ncc2n1-c1ccc(Cl)cc1C(c1ccccc1F)=NC2 [Midazolam],AEs leading to death,[4],0 n (%)
same,AEs leading to treatment discontinuation,[4],0 n (%)
same,Related AEs,[4],2 (15.4) n (%)
same,Serious AEs,[4],0 n (%)
same,Severity of AE: Mild,[4],3 (23.1) n (%)
same,Severity of AE: Moderate,[4],0 n (%)
same,Severity of AE: Severe,[4],0 n (%)
same,AEs,[4],3 (23.1) n (%)
same,decrease in AUC0-inf,[1]; [8],13%
same,decrease in AUC0-last,[1]; [8],24%
same,decrease in Cmax,[1]; [8],7%
same,Tmax,"human, plasma, oral, tmax, midazolam alone or with mavacamten",< 1 h
same,AUC(0-t),"human, plasma, po, 5 mg",51 ng·h/mL
same,t1/2,[9],4.84 (34.4) (n = 9) ^a h
same,t1/2,[10],5.28 (39.3) h
NC(=O)N1c2ccccc2C=Cc2ccccc21 [carbamazepine],midazolam exposure relative to baseline exposure,[7],below 10%
CC(=O)N1CCN(c2ccc(OCC3COC(Cn4ccnc4)(c4ccc(Cl)cc4Cl)O3)cc2)CC1 (centres unmarked) [ketoconazole],effect of CYP3A inhibitor on midazolam exposure,[7],increases in midazolam exposure
O=C1NC(=O)C(c2ccccc2)(c2ccccc2)N1 [phenytoin],midazolam exposure relative to baseline exposure,[7],below 10%
C[C@@H](c1ncncc1F)[C@](O)(Cn1cncn1)c1ccc(F)cc1F [voriconazole],effect of CYP3A inhibitor on midazolam exposure,[7],increases in midazolam exposure
